Where “and” joins values, the source holds several entries; their conditions need not be identical. Identical values can stand only once. Toxic doses and inconclusive results are not listed.
Tested on: L1210 leukemia ip in BDF1 mice, survival T/C
Test: NCI In Vivo Anticancer Drug Screen. Data for tumor model L1210 Leukemia (intraperitoneal) in B6D2F1 (BDF1) mice
Conditions: endpoint: mean survival time, higher = longer survival
Method in brief: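 Transplantable tumor model; survival measured in treated vs vehicle control mice. Value = treated/control.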

[1] = dose: 100.0 mg/kg/injection, schedule: Q04DX003 (ip), vehicle: saline
[2] = dose: 200.0 mg/kg/injection, schedule: Q04DX003 (ip), vehicle: saline

O=C1c2ccccc2C(=O)N1c1ccc(CBr)cc1
T/C (dose: 100.0 mg/kg/injection, schedule: Q01DX001 (ip), vehicle: Klucel (hydroxypropylcellulose) (HPC)): 98 % of control
T/C (dose: 100.0 mg/kg/injection, schedule: Q01DX009 (ip), vehicle: Klucel (hydroxypropylcellulose) (HPC)): 92 % of control and 94 % of control
T/C (dose: 100.0 mg/kg/injection, schedule: Q04DX002 (ip), vehicle: Klucel (hydroxypropylcellulose) (HPC)): 106 % of control and 89 % of control
T/C (dose: 100.0 mg/kg/injection, schedule: Q04DX003 (ip), vehicle: Klucel (hydroxypropylcellulose) (HPC)): 98 % of control
T/C (dose: 200.0 mg/kg/injection, schedule: Q01DX001 (ip), vehicle: Klucel (hydroxypropylcellulose) (HPC)): 94 % of control
T/C (dose: 200.0 mg/kg/injection, schedule: Q01DX009 (ip), vehicle: Klucel (hydroxypropylcellulose) (HPC)): 89 % of control
T/C (dose: 200.0 mg/kg/injection, schedule: Q04DX002 (ip), vehicle: Klucel (hydroxypropylcellulose) (HPC)): 97 % of control and 102 % of control
T/C (dose: 200.0 mg/kg/injection, schedule: Q04DX003 (ip), vehicle: Klucel (hydroxypropylcellulose) (HPC)): 90 % of control
T/C (dose: 400.0 mg/kg/injection, schedule: Q01DX001 (ip), vehicle: Klucel (hydroxypropylcellulose) (HPC)): 89 % of control
T/C (dose: 400.0 mg/kg/injection, schedule: Q04DX002 (ip), vehicle: Klucel (hydroxypropylcellulose) (HPC)): 92 % of control and 115 % of control
T/C (dose: 400.0 mg/kg/injection, schedule: Q04DX003 (ip), vehicle: Klucel (hydroxypropylcellulose) (HPC)): 102 % of control

COc1cc(C(=O)NC(CCC(=O)O)C(=O)O)ccc1N(C)Cc1cnc2nc(N)nc(N)c2n1 (configuration not stated)
T/C (dose: 6.25 mg/kg/injection, schedule: Q01DX009 (ip), vehicle: sodium bicarbonate): 154 % of control
T/C (dose: 25.0 mg/kg/injection, schedule: Q01DX009 (ip), vehicle: sodium bicarbonate): 178 % of control

CCN(C)CCC(CNC(=O)CN(CC)CC)(c1cccc2ccccc12)C(C)C (configuration not stated)
T/C (dose: 50.0 mg/kg/injection, schedule: Q01DX009 (ip), vehicle: saline): 94 % of control
T/C (dose: 100.0 mg/kg/injection, schedule: Q01DX009 (ip), vehicle: saline): 91 % of control
T/C [1]: 103 % of control
T/C (dose: 200.0 mg/kg/injection, schedule: Q01DX009 (ip), vehicle: saline): 101 % of control
T/C [2]: 103 % of control

O=C1N=C(c2ccccc2)C(c2ccccc2)=N1
T/C [1]: 96 % of control
T/C [2]: 90 % of control
T/C (dose: 400.0 mg/kg/injection, schedule: Q04DX003 (ip), vehicle: saline): 96 % of control

c1ccc(CNc2nn[nH]n2)cc1
T/C (dose: 100.0 mg/kg/injection, schedule: Q04DX003 (ip), vehicle: saline with Tween-80): 96 % of control
T/C (dose: 200.0 mg/kg/injection, schedule: Q04DX003 (ip), vehicle: saline with Tween-80): 96 % of control
T/C (dose: 400.0 mg/kg/injection, schedule: Q04DX003 (ip), vehicle: saline with Tween-80): 94 % of control

CCCCOc1c(OCCCC)c(=O)c1=O
T/C (dose: 178.0 mg/kg/injection, schedule: Q01DX001 (ip), vehicle: saline): 106 % of control
T/C (dose: 267.0 mg/kg/injection, schedule: Q01DX001 (ip), vehicle: saline): 106 % of control

NC(N)=N/N=C\c1ccc(/C=N/N=C(N)N)cc1
T/C (dose: 60.0 mg/kg/injection, schedule: Q01DX Z (oral), vehicle: saline): 103 % of control
T/C (dose: 120.0 mg/kg/injection, schedule: Q01DX Z (oral), vehicle: saline): 108 % of control
T/C (dose: 240.0 mg/kg/injection, schedule: Q01DX Z (oral), vehicle: saline): 101 % of control
T/C (dose: 480.0 mg/kg/injection, schedule: Q01DX Z (oral), vehicle: saline): 108 % of control

C/C(=C/C1CC(=O)OC1=O)CC(C)(C)C (configuration not stated)
T/C (dose: 222.0 mg/kg/injection, schedule: Q01DX Z (ip), vehicle: methylcellulose (MC)): 108 % of control
T/C (dose: 333.0 mg/kg/injection, schedule: Q01DX Z (ip), vehicle: methylcellulose (MC)): 92 % of control

COc1ccc(-c2cc(C(=O)O)c3cccc(C(F)(F)F)c3n2)cc1
T/C [1]: 90 % of control

C[N+]1(CCCNC2=CC(=O)C(NCCC[N+]3(C)CCCCC3)=CC2=O)CCCCC1
T/C (dose: 0.5 mg/kg/injection, schedule: Q01DX001 (ip), vehicle: saline): 105 % of control

FC(F)(F)c1nc(Cl)c2cn[nH]c2n1
T/C (dose: 44.0 mg/kg/injection, schedule: Q01DX Z (ip), vehicle: methylcellulose (MC)): 104 % of control
T/C (dose: 66.0 mg/kg/injection, schedule: Q01DX Z (ip), vehicle: methylcellulose (MC)): 103 % of control
T/C (dose: 100.0 mg/kg/injection, schedule: Q01DX Z (ip), vehicle: methylcellulose (MC)): 100 % of control

Cc1cc(-c2ccccc2)c2c(C#N)cn(-c3cccc(Cl)c3)c2n1
T/C (dose: 100.0 mg/kg/injection, schedule: Q01DX001 (ip), vehicle: saline with Tween-80): 92 % of control
T/C (dose: 100.0 mg/kg/injection, schedule: Q01DX001 (ip), vehicle: saline): 87 % of control
T/C (dose: 200.0 mg/kg/injection, schedule: Q01DX001 (ip), vehicle: saline with Tween-80): 106 % of control
T/C (dose: 400.0 mg/kg/injection, schedule: Q01DX001 (ip), vehicle: saline with Tween-80): 92 % of control
T/C (dose: 400.0 mg/kg/injection, schedule: Q01DX001 (ip), vehicle: saline): 102 % of control

Reference: PubChem BioAssay AID248 (DTP/NCI, 2004)
